Measured values reported in ChEMBL document CHEMBL3885881, “DrugMatrix”.

Species on record: Rattus norvegicus
Test: DrugMatrix - Regimen: Daily Repeat
Assay type: toxicity, organism-based, Sprague-Dawley
Parameters: regimen Daily Repeat, gender Male, age 6-8 weeks
Settings: in vivo, po, route oral GAVAGE, vehicle .5 % CMC; for ABSOLUTE BASOPHIL / ABSOLUTE EOSINOPHIL / ABSOLUTE LYMPHOCYTE / ABSOLUTE MONOCYTE / ABSOLUTE SEGMENTED NEUTROPHIL / BASOPHIL / EOSINOPHIL / ERYTHROCYTE COUNT / HEMATOCRIT / HEMOGLOBIN / LEUKOCYTE COUNT / LYMPHOCYTE / MEAN CORPUSCULAR HEMOGLOBIN / MEAN CORPUSCULAR VOLUME / MONOCYTE / NEUTROPHIL / NUCLEATED RED BLOOD CELLS / PLATELET COUNT: tissue Blood; for ALANINE AMINOTRANSFERASE / ALBUMIN / ALKALINE PHOSPHATASE / ASPARTATE AMINOTRANSFERASE / BLOOD UREA NITROGEN / CARBON DIOXIDE / CHLORIDE / CHOLESTEROL / CREATINE PHOSPHOKINASE / CREATININE / GLUCOSE / LACTATE DEHYDROGENASE / LIPASE / PHOSPHORUS / POTASSIUM / SODIUM / TOTAL BILIRUBIN / TOTAL PROTEIN / URIC ACID: tissue Plasma
[1] = 68 mg/kg, 72 h, dose level Low, time 3 day
[2] = 68 mg/kg, 120 h, dose level Low, time 5 day
[3] = 750 mg/kg, 72 h, dose level High, time 3 day
[4] = 750 mg/kg, 120 h, dose level High, time 5 day

`C(=C\c1ccccc1)/CN1CCN(C(c2ccccc2)c2ccccc2)CC1` [CINNARIZINE] was tested, and the “ABSOLUTE BASOPHIL” value [1] was 0 CELLS/uL, the “ABSOLUTE EOSINOPHIL” value [1] was 0 CELLS/uL and the “ABSOLUTE LYMPHOCYTE” value [1] was 14250 CELLS/uL. For the same molecule, the “ABSOLUTE MONOCYTE” value [1] was 268.67 CELLS/uL, the “ABSOLUTE SEGMENTED NEUTROPHIL” value [1] was 1614.67 CELLS/uL and the BASOPHIL [1] was 0%. For the same molecule, the EOSINOPHIL [1] was 0%, the “ERYTHROCYTE COUNT” value [1] was 5.37 x10E6/uL and the HEMATOCRIT [1] was 33.93%. The HEMOGLOBIN [1] was 12.87 G/DL, the “LEUKOCYTE COUNT” value [1] was 16.13 x10E3/uL and the LYMPHOCYTE [1] was 88.33%. The “MEAN CORPUSCULAR HEMOGLOBIN” value [1] was 24 pg, the “MEAN CORPUSCULAR VOLUME” value [1] was 63.2 fL and the MONOCYTE [1] was 1.67%. The NEUTROPHIL [1] was 10%, the “NUCLEATED RED BLOOD CELLS” value [1] was 0 /100WBC and the “PLATELET COUNT” value [1] was 1225 x10E3/uL. The “ALANINE AMINOTRANSFERASE” value [1] was 45.33 u/L, the ALBUMIN [1] was 4.37 G/DL and the “ALKALINE PHOSPHATASE” value [1] was 323 u/L. For the same molecule, the “ASPARTATE AMINOTRANSFERASE” value [1] was 68.67 u/L, the “BLOOD UREA NITROGEN” value [1] was 15.33 mg/dL and the “CARBON DIOXIDE” value [1] was 24.33 mmol/L. For the same molecule, the CHLORIDE [1] was 102 MEQ/L, the CHOLESTEROL [1] was 67.33 mg/dL and the “CREATINE PHOSPHOKINASE” value [1] was 220.67 u/L. The CREATININE [1] was 0.17 mg/dL, the GLUCOSE [1] was 136.33 mg/dL and the “LACTATE DEHYDROGENASE” value [1] was 186 u/L. The LIPASE [1] was 9 u/L, the PHOSPHORUS [1] was 11.57 mg/dL and the POTASSIUM [1] was 6.72 MEQ/L. For the same molecule, the SODIUM [1] was 145.13 MEQ/L, the “TOTAL BILIRUBIN” value [1] was 0.2 mg/dL and the “TOTAL PROTEIN” value [1] was 5.33 G/DL. For the same molecule, the “URIC ACID” value [1] was 1.7 mg/dL, the “ABSOLUTE BASOPHIL” value [2] was 0 CELLS/uL and the “ABSOLUTE EOSINOPHIL” value [2] was 62.67 CELLS/uL. The “ABSOLUTE LYMPHOCYTE” value [2] was 17347 CELLS/uL, the “ABSOLUTE MONOCYTE” value [2] was 686 CELLS/uL and the “ABSOLUTE SEGMENTED NEUTROPHIL” value [2] was 2204.33 CELLS/uL. The BASOPHIL [2] was 0%, the EOSINOPHIL [2] was 0.33% and the “ERYTHROCYTE COUNT” value [2] was 5.91 x10E6/uL. The HEMATOCRIT [2] was 36.67%, the HEMOGLOBIN [2] was 13.63 G/DL and the “LEUKOCYTE COUNT” value [2] was 20.3 x10E3/uL. For the same molecule, the LYMPHOCYTE [2] was 85.33%, the “MEAN CORPUSCULAR HEMOGLOBIN” value [2] was 23.13 pg and the “MEAN CORPUSCULAR VOLUME” value [2] was 62.13 fL. The MONOCYTE [2] was 3.33%, the NEUTROPHIL [2] was 11% and the “NUCLEATED RED BLOOD CELLS” value [2] was 0 /100WBC. The “PLATELET COUNT” value [2] was 1382.33 x10E3/uL, the “ALANINE AMINOTRANSFERASE” value [2] was 44 u/L and the ALBUMIN [2] was 4.3 G/DL. The “ALKALINE PHOSPHATASE” value [2] was 307 u/L, the “ASPARTATE AMINOTRANSFERASE” value [2] was 78.33 u/L and the “BLOOD UREA NITROGEN” value [2] was 21.67 mg/dL. For the same molecule, the “CARBON DIOXIDE” value [2] was 26 mmol/L, the CHLORIDE [2] was 107.33 MEQ/L and the CHOLESTEROL [2] was 53.33 mg/dL. For the same molecule, the “CREATINE PHOSPHOKINASE” value [2] was 288.33 u/L, the CREATININE [2] was 0.19 mg/dL and the GLUCOSE [2] was 133 mg/dL. For the same molecule, the “LACTATE DEHYDROGENASE” value [2] was 263 u/L, the LIPASE [2] was 8.67 u/L and the PHOSPHORUS [2] was 11.3 mg/dL. The POTASSIUM [2] was 6.89 MEQ/L, the SODIUM [2] was 145.37 MEQ/L and the “TOTAL BILIRUBIN” value [2] was 0.17 mg/dL. The “TOTAL PROTEIN” value [2] was 6.13 G/DL, the “URIC ACID” value [2] was 1.5 mg/dL and the “ABSOLUTE BASOPHIL” value [3] was 0 CELLS/uL. The “ABSOLUTE EOSINOPHIL” value [3] was 121.67 CELLS/uL, the “ABSOLUTE LYMPHOCYTE” value [3] was 10962.67 CELLS/uL and the “ABSOLUTE MONOCYTE” value [3] was 242 CELLS/uL. For the same molecule, the “ABSOLUTE SEGMENTED NEUTROPHIL” value [3] was 773.67 CELLS/uL, the BASOPHIL [3] was 0% and the EOSINOPHIL [3] was 1%. The “ERYTHROCYTE COUNT” value [3] was 6.6 x10E6/uL, the HEMATOCRIT [3] was 41.67% and the HEMOGLOBIN [3] was 15.33 G/DL. For the same molecule, the “LEUKOCYTE COUNT” value [3] was 12.1 x10E3/uL, the LYMPHOCYTE [3] was 90.67% and the “MEAN CORPUSCULAR HEMOGLOBIN” value [3] was 23.23 pg. For the same molecule, the “MEAN CORPUSCULAR VOLUME” value [3] was 63.07 fL, the MONOCYTE [3] was 2% and the NEUTROPHIL [3] was 6.33%. The “NUCLEATED RED BLOOD CELLS” value [3] was 0 /100WBC, the “PLATELET COUNT” value [3] was 1456.67 x10E3/uL and the “ALANINE AMINOTRANSFERASE” value [3] was 52.33 u/L. The ALBUMIN [3] was 4.3 G/DL, the “ALKALINE PHOSPHATASE” value [3] was 423.33 u/L and the “ASPARTATE AMINOTRANSFERASE” value [3] was 79.33 u/L. The “BLOOD UREA NITROGEN” value [3] was 19 mg/dL, the “CARBON DIOXIDE” value [3] was 26.67 mmol/L and the CHLORIDE [3] was 99.33 MEQ/L. The CHOLESTEROL [3] was 58.67 mg/dL, the “CREATINE PHOSPHOKINASE” value [3] was 294.67 u/L and the CREATININE [3] was 0.19 mg/dL. For the same molecule, the GLUCOSE [3] was 138 mg/dL, the “LACTATE DEHYDROGENASE” value [3] was 240.67 u/L and the LIPASE [3] was 10 u/L. The PHOSPHORUS [3] was 11.73 mg/dL, the POTASSIUM [3] was 6.79 MEQ/L and the SODIUM [3] was 141.93 MEQ/L. The “TOTAL BILIRUBIN” value [3] was 0.17 mg/dL, the “TOTAL PROTEIN” value [3] was 6.1 G/DL and the “URIC ACID” value [3] was 1.8 mg/dL. For the same molecule, the “ABSOLUTE BASOPHIL” value [4] was 0 CELLS/uL, the “ABSOLUTE EOSINOPHIL” value [4] was 0 CELLS/uL and the “ABSOLUTE LYMPHOCYTE” value [4] was 10935.67 CELLS/uL. The “ABSOLUTE MONOCYTE” value [4] was 287 CELLS/uL, the “ABSOLUTE SEGMENTED NEUTROPHIL” value [4] was 1277.33 CELLS/uL and the BASOPHIL [4] was 0%. The EOSINOPHIL [4] was 0%, the “ERYTHROCYTE COUNT” value [4] was 6.35 x10E6/uL and the HEMATOCRIT [4] was 38.33%. For the same molecule, the HEMOGLOBIN [4] was 14.23 G/DL, the “LEUKOCYTE COUNT” value [4] was 12.5 x10E3/uL and the LYMPHOCYTE [4] was 87.67%. For the same molecule, the “MEAN CORPUSCULAR HEMOGLOBIN” value [4] was 22.4 pg, the “MEAN CORPUSCULAR VOLUME” value [4] was 60.4 fL and the MONOCYTE [4] was 2.33%. For the same molecule, the NEUTROPHIL [4] was 10%, the “NUCLEATED RED BLOOD CELLS” value [4] was 0 /100WBC and the “PLATELET COUNT” value [4] was 1123.67 x10E3/uL. The “ALANINE AMINOTRANSFERASE” value [4] was 56 u/L, the ALBUMIN [4] was 4.1 G/DL and the “ALKALINE PHOSPHATASE” value [4] was 361.67 u/L. The “ASPARTATE AMINOTRANSFERASE” value [4] was 78.67 u/L, the “BLOOD UREA NITROGEN” value [4] was 17.67 mg/dL and the “CARBON DIOXIDE” value [4] was 27 mmol/L. The CHLORIDE [4] was 103.67 MEQ/L, the CHOLESTEROL [4] was 72.33 mg/dL and the “CREATINE PHOSPHOKINASE” value [4] was 366.67 u/L. The CREATININE [4] was 0.16 mg/dL, the GLUCOSE [4] was 155.33 mg/dL and the “LACTATE DEHYDROGENASE” value [4] was 194.67 u/L. The LIPASE [4] was 10 u/L, the PHOSPHORUS [4] was 12.9 mg/dL and the POTASSIUM [4] was 7.06 MEQ/L. For the same molecule, the SODIUM [4] was 147.1 MEQ/L, the “TOTAL BILIRUBIN” value [4] was 0.17 mg/dL and the “TOTAL PROTEIN” value [4] was 5.9 G/DL. For the same molecule, the “URIC ACID” value [4] was 2 mg/dL.
